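Cultured in 96-well plates, cells were exposed to test compound for 48 hours across five concentrations. GI50 is the concentration that inhibits growth by half.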 The source made the active and inactive calls. No stated cut-off is given here; in the data, active = GI50 up to about 1.1 µM and inactive = higher.
Assays:
Assay in all cases: NCI tumour cell line growth inhibition, 48 h
HOP-62 = tested on: HOP-62
K562 = tested on: K562
MDA-MB-231 = tested on: MDA-MB-231
SK-MEL-28 = tested on: SK-MEL-28
OVCAR-3 = tested on: OVCAR-3
TK-10 = tested on: TK-10
NCI-H23 = tested on: NCI-H23
UO-31 = tested on: UO-31
SK-MEL-5 = tested on: SK-MEL-5
CCRF-CEM = tested on: CCRF-CEM
U-251 = tested on: U-251
PC-3 = tested on: PC-3
HCT-15 = tested on: HCT-15
NCI-H226 = tested on: NCI-H226
LOX IMVI = tested on: LOX IMVI
UACC-257 = tested on: UACC-257
SK-MEL-2 = tested on: SK-MEL-2
A549 = tested on: A549
NCI/ADR-RES = tested on: NCI/ADR-RES
HL-60 = tested on: HL-60

Structure (SMILES) | GI50 (HOP-62) | GI50 (K562) | GI50 (MDA-MB-231) | GI50 (SK-MEL-28) | GI50 (OVCAR-3) | GI50 (TK-10) | GI50 (NCI-H23) | GI50 (UO-31) | GI50 (SK-MEL-5) | GI50 (CCRF-CEM) | GI50 (U-251) | GI50 (PC-3) | GI50 (HCT-15) [µM] | GI50 (NCI-H226) | GI50 (LOX IMVI) | GI50 (UACC-257) | GI50 (SK-MEL-2) | GI50 (A549) | GI50 (NCI/ADR-RES) | GI50 (HL-60)
Nc1nc(Br)nc2ncn(C3CC(O)C(CO)O3)c12 (centres undefined) | > 100 µM (inactive) | 23.4 µM (inactive) | > 100 µM (inactive) | > 100 µM (inactive) | > 100 µM (inactive) | > 100 µM (inactive) | 3.76 µM (inactive) | 7.21 µM (inactive) | 60 µM (inactive) | < 0.01 µM (active) | > 53 µM (inactive) | > 100 µM (inactive) | > 100 | > 68.1 µM (inactive) | > 72.9 µM (inactive) | > 100 µM (inactive) | > 100 µM (inactive) | 18 µM (inactive) | – | –
COc1ccc(/C=C2\NC(=S)N(CN3CCCCC3)C2=O)cc1 | > 100 µM (inactive) | 34.5 µM (inactive) | > 100 µM (inactive) | > 100 µM (inactive) | 71.6 µM (inactive) | 83.6 µM (inactive) | 77.1 µM (inactive) | 37.1 µM (inactive) | 36.1 µM (inactive) | 39.5 µM (inactive) | 61.7 µM (inactive) | 78.7 µM (inactive) | 24.6 | 42.2 µM (inactive) | 30.5 µM (inactive) | – | > 100 µM (inactive) | 72.1 µM (inactive) | 26.9 µM (inactive) | –
C[C@@]1(CO)[C@H](O)CC[C@@]2(C)[C@H]1CC[C@H]1C[C@@H]3C[C@@]12CC[C@@]3(O)COC(=O)CN | 14 µM (inactive) | 5.55 µM (inactive) | 34.8 µM (inactive) | 100 µM (inactive) | 58.3 µM (inactive) | 56.5 µM (inactive) | 2.08 µM (inactive) | 4.7 µM (inactive) | 11.2 µM (inactive) | 0.67 µM (active) | 10.6 µM (inactive) | 21.3 µM (inactive) | – | – | 5.57 µM (inactive) | 33.9 µM (inactive) | 64.9 µM (inactive) | – | – | 0.293 µM (active)
O=S(=O)(O)c1cc(/N=N/c2c(O)ccc3ccccc23)ccc1/C=C/c1ccc(/N=N/c2c(O)ccc3ccccc23)cc1S(=O)(=O)O | > 100 µM (inactive) | > 100 µM (inactive) | 40.3 µM (inactive) | > 100 µM (inactive) | > 100 µM (inactive) | > 100 µM (inactive) | > 100 µM (inactive) | > 100 µM (inactive) | > 100 µM (inactive) | – | > 100 µM (inactive) | > 100 µM (inactive) | > 100 | > 100 µM (inactive) | – | > 100 µM (inactive) | > 100 µM (inactive) | > 100 µM (inactive) | > 100 µM (inactive) | –
Oc1cc(-c2ccc(Cl)cc2)cn2c1nc1ccccc12 | 31.3 µM (inactive) | 2.3 µM (inactive) | > 100 µM (inactive) | > 100 µM (inactive) | > 100 µM (inactive) | > 100 µM (inactive) | > 100 µM (inactive) | > 100 µM (inactive) | – | – | 6.59 µM (inactive) | > 100 µM (inactive) | > 100 | > 100 µM (inactive) | 1.88 µM (inactive) | > 100 µM (inactive) | – | – | > 100 µM (inactive) | 2.66 µM (inactive)
O=C(O)C1CCCN1Cc1ccc2c(c1)OCO2 (centres undefined) | > 100 µM (inactive) | > 100 µM (inactive) | > 100 µM (inactive) | > 100 µM (inactive) | > 100 µM (inactive) | > 100 µM (inactive) | > 100 µM (inactive) | > 100 µM (inactive) | > 100 µM (inactive) | – | > 100 µM (inactive) | > 100 µM (inactive) | > 100 | > 100 µM (inactive) | > 100 µM (inactive) | > 100 µM (inactive) | > 100 µM (inactive) | > 100 µM (inactive) | > 100 µM (inactive) | –
CSc1c(C(N)=S)c(N)nn1-c1ccccc1 | – | > 100 µM (inactive) | > 100 µM (inactive) | > 100 µM (inactive) | > 100 µM (inactive) | > 100 µM (inactive) | > 100 µM (inactive) | > 100 µM (inactive) | > 100 µM (inactive) | – | > 100 µM (inactive) | > 100 µM (inactive) | > 100 | > 100 µM (inactive) | > 100 µM (inactive) | > 100 µM (inactive) | > 100 µM (inactive) | > 100 µM (inactive) | > 100 µM (inactive) | > 100 µM (inactive)
CCCCCCCC(=O)NS(=O)(=O)c1ccccc1 | > 100 µM (inactive) | > 100 µM (inactive) | > 100 µM (inactive) | > 100 µM (inactive) | > 100 µM (inactive) | > 100 µM (inactive) | > 100 µM (inactive) | > 100 µM (inactive) | > 100 µM (inactive) | > 100 µM (inactive) | > 100 µM (inactive) | > 100 µM (inactive) | > 100 | – | > 100 µM (inactive) | – | > 100 µM (inactive) | > 100 µM (inactive) | > 100 µM (inactive) | > 100 µM (inactive)
